Measured values as given in patent US20240351996A1, “CDK19-SELECTIVE INHIBITORS, AND METHODS OF USE THEREOF” (CZ BIOHUB SF, LLC, priority 2022, published 2024).
pIC50: −log10 of the molar value.

Legend:
[1] = system: MDA-MB-231 TNBC cells; assay: Triple-negative breast cancer cell death assay (LD50); assay type: cell-based; details: MDA-MB-231, 48 h treatment, live cell counts normalized to DMSO
Procedure: (§1) Triple-Negative Breast Cancer Cell Death Assay to Measure LD50: The efficacy and selectivity of the disclosed compounds was evaluated in a TNBC cell line assay (MDA-MB-231) and/or human foreskin fibroblast 2088 cells, as was protein binding to human serum and microsomal stability of the disclosed compounds, as described herein.
(§2) Cells from a TNBC cell line (MDA-MB-231) (approximately 100,000 cells) and/or human foreskin fibroblast 2088 cells were seeded into each well of a 6-welled polystyrene treated tissue culture plate and were allowed to attach for 18 h before treatment with the test compound. Cells were then treated every 24 h with a fresh batch of media containing the test compound at one of the respective concentration(s) (Log10 Molar [C]): −5.0, −5.5, −6.0, −6.5, −7.0, −7.5 so that a complete dose-response could be calculated.
(§3) After 48 h of treatment, adherent cells were fixed with a 4% paraformaldehyde solution and stained with Hoechst 33342 nuclear dye (5 μg/mL). Each well was imaged at 10× magnification on a Keyence BZ-X710 microscope and live cell counts were performed in triplicate for each condition using automated ImageJ computational software. LD50 values represent the percentage of live cells after treatment with the test compound, which was calculated after normalization to the DMSO only treated control group.

[2] = target: CDK19/CycC (Homo sapiens, UniProt Q9BWU1); assay: LanthaScreen europium kinase binding assay (FRET displacement), CDK19; details: for CDK19 Selectivity: CDK19/CDK8 selectivity based on IC50 values; for pIC50: his-tagged CDK19/CycC 5 nM, tracer 10 nM, 3 h incubation
Chain of CDK19/CycC (Q9BWU1 whole entry): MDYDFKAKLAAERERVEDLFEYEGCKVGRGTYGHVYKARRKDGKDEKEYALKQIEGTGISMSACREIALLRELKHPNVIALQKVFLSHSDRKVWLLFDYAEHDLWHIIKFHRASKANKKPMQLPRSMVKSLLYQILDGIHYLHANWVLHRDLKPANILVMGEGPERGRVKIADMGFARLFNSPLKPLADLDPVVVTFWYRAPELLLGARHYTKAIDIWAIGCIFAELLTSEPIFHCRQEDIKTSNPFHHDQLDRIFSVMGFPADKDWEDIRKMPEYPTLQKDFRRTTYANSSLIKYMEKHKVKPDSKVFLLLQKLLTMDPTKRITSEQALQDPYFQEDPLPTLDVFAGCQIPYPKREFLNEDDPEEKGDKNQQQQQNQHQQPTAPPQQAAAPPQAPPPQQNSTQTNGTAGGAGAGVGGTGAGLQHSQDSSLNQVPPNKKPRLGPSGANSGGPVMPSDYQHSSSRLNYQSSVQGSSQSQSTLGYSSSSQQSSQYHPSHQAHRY
Chain of CDK19/CycC (P24863 whole entry partner): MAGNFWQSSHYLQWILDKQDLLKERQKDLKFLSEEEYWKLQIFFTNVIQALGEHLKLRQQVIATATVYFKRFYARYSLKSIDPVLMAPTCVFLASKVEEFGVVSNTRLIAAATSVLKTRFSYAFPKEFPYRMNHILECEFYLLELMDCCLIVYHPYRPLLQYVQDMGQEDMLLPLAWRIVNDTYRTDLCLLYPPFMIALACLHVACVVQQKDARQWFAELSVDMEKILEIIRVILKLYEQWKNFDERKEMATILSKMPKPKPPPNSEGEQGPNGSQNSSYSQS
Summary of the method: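 His-tagged CDK19/CycC (5 nM) preincubated 30 min with 10 nM Alexa Fluor 665 ATP-site tracer, 2 nM biotin anti-his antibody and 2 nM europium-streptavidin, then titrated with compound (10^−4.5 to 10^−8 M). TR-FRET (ex 317, em 620/665 nm) read after 3 h at room temperature; duplicates, three independent runs, DMSO-normalized IC50.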

[3] = Liver microsome stability assay (Cyprotex), human; assay type: in vitro ADME; details: human liver microsomes
Procedure: (§4) Microsome Assay to Measure Stability: The stability of the compounds was evaluated using a liver cell microsome assay commercially available from Cyprotex (Watertown, MA) (https://www.cyprotex.com/admepk/in-vitro-metabolism/microsomal-stability).

[4] = target: CDK8 (Homo sapiens, UniProt P49336); assay: LanthaScreen europium kinase binding assay (FRET displacement), CDK8
Chain of CDK8 (P49336 whole entry): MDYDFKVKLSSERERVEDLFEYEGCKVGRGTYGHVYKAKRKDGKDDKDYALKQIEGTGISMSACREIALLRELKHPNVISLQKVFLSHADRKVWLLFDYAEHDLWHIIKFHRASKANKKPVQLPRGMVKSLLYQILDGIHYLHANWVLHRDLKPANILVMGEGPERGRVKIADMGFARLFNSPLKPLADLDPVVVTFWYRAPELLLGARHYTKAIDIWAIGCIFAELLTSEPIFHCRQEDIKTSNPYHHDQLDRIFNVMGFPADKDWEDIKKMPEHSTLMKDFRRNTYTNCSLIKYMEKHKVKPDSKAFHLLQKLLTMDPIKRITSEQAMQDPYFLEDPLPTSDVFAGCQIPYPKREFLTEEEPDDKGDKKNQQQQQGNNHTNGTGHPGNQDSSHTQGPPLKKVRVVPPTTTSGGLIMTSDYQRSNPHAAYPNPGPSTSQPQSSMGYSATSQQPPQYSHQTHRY
Chain of CDK8 (P24863 whole entry partner): as the sequence (P24863 whole entry partner) above

[5] = Liver microsome stability assay (Cyprotex), mouse; assay type: in vitro ADME; details: mouse liver microsomes
Procedure: as §4

[6] = system: human foreskin fibroblast 2088 cells; assay: Cell death assay in normal fibroblasts (LD50); assay type: cell-based; details: FIG. 1B
Procedure: as §1, §2, §3

SMILES	MDA LD50 [1] [nM]	CDK19 Selectivity [2]	pIC50 [2]	Human Microsome Stability [3] [μL/min/mg protein]	pIC50 [4]	Mouse Microsome Stability [5] [μL/min/mg protein]	concentration at which significant fibroblast cell death was observed [6]
c1cc(Nc2cnc(Nc3ccc(C4CCC4)cc3)nc2)ccn1 [Compound A39]	158	2	8.02	7.6	7.72	38.6	
CC(C)Cc1ccc(Nc2ncc(Nc3ccnc4ccccc34)cn2)cc1 [Compound A11]	180	0.9	7.60	28.7	7.66	31.3	
CNC(=O)c1cc(Nc2cnc(Nc3ccc(CC(C)C)cc3)nc2)ccn1 [Compound A47]		2.4	6.51		6.13		10,000 nM
Cc1cnccc1Nc1cnc(Nc2ccc(CC(C)C)cc2)nc1 [Compound A21]	178	15	7.42	159.0	6.25	93.0	
CC(C)Cc1ccc(Nc2ncc(Nc3ccncc3OC3CCCC3)cn2)cc1 [Compound A53]	91	≥22	≥ 8.60	36	7.25	19	
